The text below walks through data of patent US20240109930A1, “TRIAZOLYL-METHYL SUBSTITUTED ALPHA-D-GALACTOPYRANOSIDE DERIVATIVES” (Idorsia Pharmaceuticals Ltd, priority 2021, published 2024).

The structures appear in SMILES notation.

Assay [1] addresses human Gal-1 (hGal-1) (Homo sapiens, UniProt P09382, C131S/C17S/C43S/C61S/C89S). The experiment in a line: Competitive binding assay: biotinylated hGal-1 binding to microplate-adsorbed asialofetuin (ASF). The conditions noted are these: IC50 values from several measurements given as geomean. The protocol: (§1) The inhibitory activity of compounds is determined in competitive binding assays. This spectrophotometric assay measures the binding of biotinylated human Gal-3 (hGal-3) or human Gal-1 (hGal-1), respectively, to a microplate-adsorbed glycoprotein, asialofetuin (ASF) (Proc Natl Acad Sci USA. 2013 Mar. 26; 110(13):5052-7.). Alternatively, and preferably, a human Gal-1 version in which all six cysteines are substituted by serines may be used.
(§2) Briefly, compounds are serially diluted in DMSO (working dilutions). ASF-coated 384well plates are supplemented with 22.8 μL/well of biotinylated hGal-3 or hGal-1 in assay buffer (i.e. 300-1000 ng/mL biotinylated hGal-3 or hGal-1) to which 1.2 μL of compound working dilutions are added and mixed.
(§3) Plates are incubated for 3 hours at 4° C., then washed with cold assay buffer (3×50 uL), incubated for 1 hour with 25 μL/well of a streptavidin-peroxidase solution (diluted in assay buffer to 80 ng/mL) at 4° C., followed by further washing steps with assay buffer (3×50 uL). Finally, 25 μL/well of ABTS substrate is added.
(§4) The calculated IC50 values may fluctuate depending on the daily assay performance. Fluctuations of this kind are known to those skilled in the art. IC50 values from several measurements are given as geomean values.

The target in assay [2] is human Gal-3 (hGal-3) (Homo sapiens (Human), UniProt P17931). The experiment in a line: Competitive binding assay: biotinylated hGal-3 binding to microplate-adsorbed asialofetuin (ASF). To be noted: IC50 values from several measurements given as geomean. As to the method:
as §1, §2, §3, §4

human Gal-3 (hGal-3), sequence (P17931 whole entry): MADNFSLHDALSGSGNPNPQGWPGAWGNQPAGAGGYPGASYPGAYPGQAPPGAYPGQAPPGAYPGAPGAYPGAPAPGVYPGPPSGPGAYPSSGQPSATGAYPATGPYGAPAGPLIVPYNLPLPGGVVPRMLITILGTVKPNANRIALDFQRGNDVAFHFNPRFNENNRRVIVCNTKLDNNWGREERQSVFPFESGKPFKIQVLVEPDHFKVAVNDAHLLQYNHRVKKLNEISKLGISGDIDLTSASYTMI

As usually defined, the IC50 is the midpoint of a concentration-inhibition curve. As for `CO[C@@H]1[C@@H](n2cc(-c3ccc(Br)c(F)c3F)nn2)[C@@H](O)[C@@H](CO)O[C@@H]1Cc1cn(C2(CF)CC2)nn1` [Ex 4.1.46., (2R,3R,4S,5R,6R)-4-(4-(4-bromo-2,3-difluorophenyl)-1H-1,2,3-triazol-1-yl)-6-((1-(1-(fluoromethyl)cyclopropyl)-1H-1,2,3-triazol-4-yl)methyl)-2-(hydroxymethyl)-5-methoxytetrahydro-2H-pyran-3-ol], the IC50 in assay [1] was found to be 1940 nM; in assay [2], 30 nM.

`CO[C@@H]1[C@@H](n2cc(-c3ccc(Cl)c(F)c3F)nn2)[C@@H](O)[C@@H](CO)O[C@@H]1Cc1cn([C@@H]2CC[C@@H]2F)nn1` (relative stereo) [Example 2.1.88.A, (2R,3R,4S,5R,6R)-4-(4-(4-chloro-2,3-difluorophenyl)-1H-1,2,3-triazol-1-yl)-6-((1-((1R*,2S*)-2-fluorocyclobutyl)-1H-1,2,3-triazol-4-yl)methyl)-2-(hydroxymethyl)-5-methoxytetrahydro-2H-pyran-3-ol] registered an IC50 in assay [1] of 1770 nM. That is a single-digit micromolar value.

Take `CO[C@@H]1[C@@H](n2cc(-c3ccc(Cl)c(F)c3F)nn2)[C@@H](O)[C@@H](CO)O[C@@H]1Cc1cn(C2(C(F)(F)F)CC3CCC2C3)nn1` (stereo partly drawn) [Ex 2.1.70.]: the values for the IC50 in assay [1] and in assay [2] were 830 nM and 50 nM, respectively.

As for `COCC1(n2cc(C[C@H]3O[C@H](CO)[C@H](O)[C@H](n4cc(-c5ccc(Cl)c(F)c5F)nn4)[C@H]3OC)nn2)CC1` [Ex 2.1.7.], the IC50 is 2950 nM in assay [1] and 60 nM in assay [2].

With `CO[C@@H]1[C@@H](n2cc(-c3ccc(F)c(F)c3F)nn2)[C@@H](O)[C@@H](CO)O[C@@H]1Cc1cn(C23CC(OC)(C2)C3)nn1` [Ex 3.1.29.], the half-maximal inhibitory concentration (IC50) in assay [1] came out at 760 nM; in assay [2] it was 30 nM.

For `CO[C@@H]1[C@@H](n2cc(-c3ccc(F)c(F)c3F)nn2)[C@@H](O)[C@@H](CO)O[C@@H]1Cc1cn(C2(C(F)F)CC2)nn1` [Ex 3.1.51.], the IC50 in assay [1] is 240 nM; in assay [2], 40 nM.

Turning to `CO[C@@H]1[C@@H](n2cc(-c3ccc(F)c(F)c3F)nn2)[C@@H](O)[C@@H](CO)O[C@@H]1Cc1cn(C23CC(C)(C2)C3)nn1` [Ex 3.1.14.], the IC50 stood at 700 nM in assay [1] and 60 nM in assay [2].

With `CO[C@@H]1[C@@H](n2cc(-c3ccc(C)c(F)c3F)nn2)[C@@H](O)[C@@H](CO)O[C@@H]1Cc1cn(C2(CO)CC(F)(F)C2)nn1` [Ex 1.1.18.], the IC50 came to 1470 nM in assay [1] and 50 nM in assay [2].

As to `CO[C@@H]1[C@@H](n2cc(-c3ccc(Cl)c(F)c3F)nn2)[C@@H](O)[C@@H](CO)O[C@@H]1Cc1cn(C2(C)CC(F)(F)C2)nn1` [Ex 2.1.15.], the IC50 amounted to 1710 nM in assay [1] and 50 nM in assay [2].

Regarding `CO[C@@H]1[C@@H](n2cc(-c3ccc(Cl)c(F)c3F)nn2)[C@@H](O)[C@@H](CO)O[C@@H]1Cn1cc(C2(C)COC2)nn1` [Ex 2.2.6.], the IC50 in assay [1] was 1170 nM; in assay [2], 30 nM.

Regarding `CO[C@@H]1[C@@H](n2cc(-c3ccc(C)c(F)c3F)nn2)[C@@H](O)[C@@H](CO)O[C@@H]1Cc1cn(C(C)(C)CO)nn1` [Ex 1.1.9.], the figures for the concentration for half-maximal inhibition (IC50) in assay [1] and in assay [2] were 44000 nM and 70 nM, respectively.

`CO[C@@H]1[C@@H](n2cc(-c3ccc(Cl)c(F)c3F)nn2)[C@@H](O)[C@@H](CO)O[C@@H]1Cc1cn(C(C)(C)C(F)(F)F)nn1` [Ex 2.1.56.]: the figures for the IC50 in assay [1] and in assay [2] were 820 nM and 50 nM, respectively.

Take `CCC(C)(C)n1cc(C[C@H]2O[C@H](CO)[C@H](O)[C@H](n3cc(-c4ccc(Cl)c(F)c4F)nn3)[C@H]2OC)nn1` [Ex 2.1.49., (2R,3R,4S,5R,6R)-4-(4-(4-Chloro-2,3-difluorophenyl)-1H-1,2,3-triazol-1-yl)-2-(hydroxymethyl)-5-methoxy-6-((1-(tert-pentyl)-1H-1,2,3-triazol-4-yl)methyl)tetrahydro-2H-pyran-3-ol]: the 50% inhibitory concentration (IC50) in assay [1] was found to be 1330 nM; in assay [2], 30 nM.

`CO[C@@H]1[C@@H](n2cc(-c3ccc(F)c(F)c3F)nn2)[C@@H](O)[C@@H](CO)O[C@@H]1Cc1cn(C2(C)COC2)nn1` [Ex 3.1.6., (2R,3R,4S,5R,6R)-2-(hydroxymethyl)-5-methoxy-6-((1-(3-methyloxetan-3-yl)-1H-1,2,3-triazol-4-yl)methyl)-4-(4-(2,3,4-trifluorophenyl)-1H-1,2,3-triazol-1-yl)tetrahydro-2H-pyran-3-ol]: the IC50 in assay [1] came to 190 nM; in assay [2] it was 50 nM.

As for `CO[C@@H]1[C@@H](n2cc(-c3ccc(Cl)c(F)c3F)nn2)[C@@H](O)[C@@H](CO)O[C@@H]1Cc1cn(C23CC(OC)(C2)C3)nn1` [Ex 2.1.29.], the IC50 turned out to be 2100 nM in assay [1] and 60 nM in assay [2].

`CO[C@@H]1[C@@H](n2cc(-c3ccc(Cl)c(F)c3F)nn2)[C@@H](O)[C@@H](CO)O[C@@H]1Cc1cn(C2CC2C(C)C)nn1` (stereo partly drawn) [Ex 2.1.17.]: the IC50 turned out to be 11500 nM in assay [1] and 160 nM in assay [2].

For the compound `CO[C@@H]1[C@@H](n2cc(-c3ccc(Cl)c(F)c3F)nn2)[C@@H](O)[C@@H](CO)O[C@@H]1Cc1cn(C23COC(C)(C2)C3)nn1` [Ex 2.1.59., (2R,3R,4S,5R,6R)-4-(4-(4-chloro-2,3-difluorophenyl)-1H-1,2,3-triazol-1-yl)-2-(hydroxymethyl)-5-methoxy-6-((1-(1-methyl-2-oxabicyclo[2.1.1]hexan-4-yl)-1H-1,2,3-triazol-4-yl)methyl)tetrahydro-2H-pyran-3-ol], the IC50 in assay [1] stood at 2370 nM; in assay [2], 50 nM.

With `CCC1(c2cn(C[C@H]3O[C@H](CO)[C@H](O)[C@H](n4cc(-c5ccc(F)c(F)c5F)nn4)[C@H]3OC)nn2)COC1` [Ex 3.2.38.], the IC50 in assay [1] stood at 470 nM; in assay [2] it was 50 nM.

As to `COCC1(n2cc(C[C@H]3O[C@H](CO)[C@H](O)[C@H](n4cc(-c5ccc(C)c(F)c5F)nn4)[C@H]3OC)nn2)CC1` [Ex 1.1.7.], the values for the half-maximal inhibitory concentration (IC50) in assay [1] and in assay [2] were 5100 nM and 60 nM, respectively.

With `CO[C@@H]1[C@@H](n2cc(-c3ccc(Br)c(F)c3F)nn2)[C@@H](O)[C@@H](CO)O[C@@H]1Cc1cn(C2(C(F)(F)F)CCC2)nn1` [Ex 4.1.55., (2R,3R,4S,5R,6R)-4-(4-(4-bromo-2,3-difluorophenyl)-1H-1,2,3-triazol-1-yl)-2-(hydroxymethyl)-5-methoxy-6-((1-(1-(trifluoromethyl)cyclobutyl)-1H-1,2,3-triazol-4-yl)methyl)tetrahydro-2H-pyran-3-ol], the IC50 was 1480 nM in assay [1] and 30 nM in assay [2].

In the case of `CO[C@@H]1[C@@H](n2cc(-c3ccc(Cl)c(F)c3F)nn2)[C@@H](O)[C@@H](CO)O[C@@H]1Cc1cn(C2(CO)CCC2)nn1` [Ex 2.1.11.], the half-maximal inhibitory concentration (IC50) in assay [1] is 2510 nM; in assay [2], 50 nM.

The compound `CO[C@@H]1[C@@H](n2cc(-c3ccc(F)c(F)c3F)nn2)[C@@H](O)[C@@H](CO)O[C@@H]1Cn1cc(C2(O)CCC2)nn1` [Ex 3.2.31.] showed a half-maximal inhibitory concentration (IC50) in assay [1] of 730 nM.

Take `CO[C@@H]1[C@@H](n2cc(-c3ccc(Cl)c(F)c3F)nn2)[C@@H](O)[C@@H](CO)O[C@@H]1Cc1cn([C@@H]2CC[C@H]2F)nn1` (relative stereo) [Example 2.1.88.C, (2R,3R,4S,5R,6R)-4-(4-(4-chloro-2,3-difluorophenyl)-1H-1,2,3-triazol-1-yl)-6-((1-((1R*,2R*)-2-fluorocyclobutyl)-1H-1,2,3-triazol-4-yl)methyl)-2-(hydroxymethyl)-5-methoxytetrahydro-2H-pyran-3-ol]: the IC50 in assay [1] came out at 1680 nM.

As to `CO[C@@H]1[C@@H](n2cc(-c3ccc(F)c(F)c3F)nn2)[C@@H](O)[C@@H](CO)O[C@@H]1Cc1cn(C23COC(C2)C3)nn1` [Ex 3.1.44.], the IC50 in assay [1] is 800 nM.

The compound `CO[C@@H]1[C@@H](n2cc(-c3ccc(F)c(F)c3F)nn2)[C@@H](O)[C@@H](CO)O[C@@H]1Cc1cn(C23COC(C2)C3)nn1` [Example 3.1.44, (2R,3R,4S,5R,6R)-6-((1-(2-oxabicyclo[2.1.1]hexan-4-yl)-1H-1,2,3-triazol-4-yl)methyl)-2-(hydroxymethyl)-5-methoxy-4-(4-(2,3,4-trifluorophenyl)-1H-1,2,3-triazol-1-yl)tetrahydro-2H-pyran-3-ol] registered an IC50 in assay [2] of 40 nM.

Compound `CO[C@@H]1[C@@H](n2cc(-c3ccc(Br)c(F)c3F)nn2)[C@@H](O)[C@@H](CO)O[C@@H]1Cn1cc(C2(O)CCC2)nn1` [Ex 4.2.31.] gave an IC50 in assay [1] of 2550 nM.

In turn, `CO[C@@H]1[C@@H](n2cc(-c3ccc(Cl)c(F)c3F)nn2)[C@@H](O)[C@@H](CO)O[C@@H]1Cc1cn(C2COCCC2(F)F)nn1` (stereo partly drawn) [Example 2.1.73.A, (2R,3R,4S,5R,6R)-4-(4-(4-chloro-2,3-difluorophenyl)-1H-1,2,3-triazol-1-yl)-6-((1-(4,4-difluorotetrahydro-2H-pyran-3-yl)-1H-1,2,3-triazol-4-yl)methyl)-2-(hydroxymethyl)-5-methoxytetrahydro-2H-pyran-3-ol] returned an IC50 in assay [1] of 1400 nM. Against the preceding compound, the IC50 is about 1.8-fold lower.

In the case of `CO[C@@H]1[C@@H](n2cc(-c3ccc(Cl)c(F)c3F)nn2)[C@@H](O)[C@@H](CO)O[C@@H]1Cc1cn(C2(C(F)(F)F)CCOC2)nn1` (stereo partly drawn) [Example 2.1.77.A, (2R,3R,4S,5R,6R)-4-(4-(4-chloro-2,3-difluorophenyl)-1H-1,2,3-triazol-1-yl)-2-(hydroxymethyl)-5-methoxy-6-((1-(3-(trifluoromethyl)tetrahydrofuran-3-yl)-1H-1,2,3-triazol-4-yl)methyl)tetrahydro-2H-pyran-3-ol], in assay [1], the IC50 is 760 nM.
